# Measured values published in patent US4429126A, “Sodium salt of 4-oxo-10-(2,3-dimethylpentanamido)-4H-pyrimido[1,2-c]quinozoline-3-carbo xylic acid” (Fujisawa Pharmaceutical Co., Ltd., priority 1982, dated 1984).
# System: PCA (Passive Cutaneous Anaphylaxis) reaction
# Experiment: TEST I: Inhibitory effect on PCA (Passive Cutaneous Anaphylaxis) reaction (64 fold diluted antiserum)
# Type: in vivo, male SD (Sprague-Dawley) strain rats
# Conditions: for Inhibitory effect (%), Intravenous administration (10 mg/kg) / inhibition in vivo at 10 mg/kg: 5 minutes before antigen challenge, intravenous; for Inhibitory effect (%), Oral administration (100 mg/kg): 60 minutes before antigen challenge; for inhibition in vivo at 10 mg/kg: Rattus norvegicus, read-out: Inhibitory effect (%), Intravenous administration (10 mg/kg)
# Description: A solution of egg albumin (2 mg) in B. pertussis-diphtheria-tetanus mixed vaccine (1 ml) was mixed with Freund incomplete adjuvant (1 ml) to give an emulsion. The emulsion was given subcutaneously in a single dose of 1 ml divided equally (0.25 ml) to the four foot pads of male SD (Sprague-Dawley) strain rats aged 8 weeks, each weighing about 300 g.
# 10 days after the immunization, blood samples were collected from femoral artery of the rats and allowed to stand under ice-cooling for 5 hours. The separated supernatant was centrifuged at 4° C. (10,000 r.p.m.×1 hour). The antisera thus obtained were stored at -80° C. prior to use.
# Male SD-strain rats aged 8 weeks, weighing 290 to 330 g, were used for PCA reaction with the homologus reaginic antiserum as prepared above. Each 0.1 ml of 64 fold diluted antiserum were injected intradermally at separate sites on the back of rats clipped free of hair, and 48 hours later, 1 ml of aqueous solution containing each 5 mg of the egg albumin and Evans blue was injected intravenously to evoke PCA reaction. Test compound was given to the animals orally 60 minutes or intravenously 5 minutes before the challenge with antigen. Control group received vehicle. Each dose group consisted of 5 animals. One hour after the challenge with antigen, the animals were sacrificed and then skinned. Dye spots caused with antiserum were investigated for their size on the reversed side of the skin, respectively. The results were expressed by percent inhibition values calculated from averaged values of the longest and shortest diameters for each spot in comparison with those in control group.
Compound,"Inhibitory effect (%), Intravenous administration (10 mg/kg) [%]","Inhibitory effect (%), Oral administration (100 mg/kg) [%]",inhibition in vivo at 10 mg/kg [%]
"4-oxo-4H-pyrimido[1,2-c]quinazoline-3-carboxylic acid [Example 27]",100,–,–
"4-oxo-10-(2-ethylbutyramido)-4H-pyrimido[1,2-C]quinazoline-3-carboxylic acid [Test compound No. 64]",39.8,–,–
"4-oxo-10-(2-methylpropionamido)-4H-pyrimido[1,2-C]quinazoline-3-carboxylicacid [Test compound No. 63]",100,–,–
"4-oxo-10-(3-cyclopentylpropionamido)-4H-pyrimido[1,2-C]quinazoline-3-carboxylic acid [Example 53]",85.0,–,–
"4-oxo-10-cyclohexanecarboxamido-4H-pyrimido[1,2-C]quinazoline-3-carboxylicacid [Example 52]",100,–,–
"4-oxo-10-pivalamido-4H-pyrimido[1,2-c]quinazoline-3-carboxyic acid [Test compound No. 60]",–,75.8,–
"4H-pyrimido[1,2-c]quinazoline-4-one [Example 26]",100,–,–
"CCOC(=O)C(=CNc1ncnc2ccc(NC(=O)C(C)C)cc12)C(=O)OCC [Example 16, diethyl [(6-isobutyramido-4-quinazolinylamino)methylene]propanedioate]",–,51.6,100
"CCOC(=O)C(=CNc1ncnc2ccccc12)C(=O)OCC [Test compound No. 1, diethyl[(4-quinazolinylamino)methylene]propanedioate]",–,–,100
"CCOC(=O)C(=CNc1ncnc2ccc(CC)cc12)C(=O)OCC [Test compound No. 3, diethyl [(6-ethyl-4-quinazolinylamino)methylene]propanedioate]",–,–,100
CCOC(=O)C(=CNc1ncnc2ccc(C)cc12)C(=O)OCC [compound 2],–,–,100
CCCc1ccc2ncnc(NC=C(C(=O)OCC)C(=O)OCC)c2c1 [compound 4],–,–,85.9
CCOC(=O)C(=CNc1ncnc2ccc(N(C)C)cc12)C(=O)OCC [compound 11],–,–,100
CCOC(=O)C(=CNc1ncnc2ccc(N3CCN(C)CC3)cc12)C(=O)OCC [compound 12],–,–,51.2
CCOC(=O)C(=CNc1ncnc2ccc(NC(C)=O)cc12)C(=O)OCC [compound 13],–,–,100
CCOC(=O)C(=CNc1ncnc2ccc(NC(=O)CC)cc12)C(=O)OCC [compound 14],–,77.4,–
CCOC(=O)C(=O)Nc1ccc2ncnc(NC=C(C(=O)OCC)C(=O)OCC)c2c1 [compound 17],–,–,100
CCOC(=O)C(=CNc1nc(OC)nc2ccccc12)C(=O)OCC [compound 20],–,–,37.6
CCOC(=O)C(=CNc1nc(=O)n(C)c2ccccc12)C(=O)OCC [compound 22],–,–,100
CCOC(=O)c1cnc2c3ccccc3ncn2c1=O [compound 23],–,–,100
CCOC(=O)c1cnc2c3cc(N4CCN(C)CC4)ccc3ncn2c1=O [compound 34],–,–,100

Compound,"Inhibitory effect (%), Intravenous administration (10 mg/kg) [%]","Inhibitory effect (%), Oral administration (100 mg/kg) [%]",inhibition in vivo at 10 mg/kg [%]
Diethyl [(6-acetamido-4-quinazolinylamino)methylene]propanedioate [Test compound No. 13],100,–,–
"diethyl 4,9-dioxo-4H,9H-pyrimido[1,2-c]pyrimido[1,2-a]quinazoline-3,8-dicarboxylate [Example 25]",100,–,–
diethyl [(6-amino-4-quinazolinylamino)methylene]propanedioate [Example 15],–,58.1,–
diethyl [(6-nitro-4-quinazolinylamino)methylene]propanedioate [Test compound No. 8],24.4,–,–
diethyl [[6-(2-ethylbutyramido)-4-quinazolinylamino]methylene]propanedioate [Example 54],48.4,–,–
"diethyl [{6-(3,3-dimethylbutyramido)-4-quinazolinylamino}methylene]propanedioate [Example 29]",100,–,–
diethyl [{6-methanesulfonamido-4-quinazolinylamino}methylene]propanedioate [Example 31],64.9,–,–
"dimethyl [[6-(2,3-dimethylpentanamido)-4-quinazolinylamino]methylene]propanedioate [Example 57]",100,100,–
dimethyl [[6-cyclohexanecarboxamido-4-quinazolinylamino]methylene]propanedioate [Example 44],0,49.1,–
dimethyl [{6-pivalamido-4-quinazolinylamino}methylene]propanedioate [Example 30],100,–,–
"ethyl 4-oxo-4H-pyrimido[1,2-c]quinazoline-3-carboxylate [Test compound No. 23]",75.4,–,–
"ethyl 4-oxo-10-(2-ethylbutyramido)-4H-pyrimido[1,2-C]quinazoline-3-carboxylate [Example 55]",91.0,–,–
"ethyl 4-oxo-10-(3,3-dimethylbutyramido)-4H-pyrimido[1,2-c]quinazoline-3-carboxylate [Test compound No. 61]",–,74.2,–
"ethyl 4-oxo-10-(3-cyclopentylpropionamido)-4H-pyrimido[1,2-C]quinazoline-3-carboxylate [Example 56]",100,24.2,–
"methyl 4-oxo-10-(2-ethylbutyramido)-4H-pyrimido[1,2-C]quinazoline-3-carboxylate [Example 46]",76.3,–,–
"methyl 4-oxo-10-(2-methylpropionamido)-4H-pyrimido[1,2-C]quinazoline-3-carboxylate [Example 47]",100,–,–
"methyl 4-oxo-10-(3,3-dimethylbutyramido)-4H-pyrimido[1,2-c]quinazoline-3-carboxylate [Example 38]",100,–,–
"methyl 4-oxo-10-cyclohexanecarboxamido-4H-pyrimido[1,2-C]quinazoline-3-carboxylate [Example 48]",100,57.5,–
"methyl 4-oxo-10-pivalamido-4H-pyrimido[1,2-c]quinazoline-3-carboxylate [Test compound No. 59]",–,72.7,–
"tetraethyl 2,2-[2,4-quinazolinediylbis(iminomethylidyne)]bispropanedioate [Example 8]",52.7,–,–
